Molecules are shown by their SMILES.

The target in the first assay is T1, hT1R1/hT1R3 umami receptor (Homo sapiens, UniProt Q7RTX0+Q7RTX1).
T1 construct: expressed in transfected cells; host or cells: HEK293 derivative stably expressing Gα15, clone I-17, expression induced with mifepristone
T1 sequence (Q7RTX1 21-841): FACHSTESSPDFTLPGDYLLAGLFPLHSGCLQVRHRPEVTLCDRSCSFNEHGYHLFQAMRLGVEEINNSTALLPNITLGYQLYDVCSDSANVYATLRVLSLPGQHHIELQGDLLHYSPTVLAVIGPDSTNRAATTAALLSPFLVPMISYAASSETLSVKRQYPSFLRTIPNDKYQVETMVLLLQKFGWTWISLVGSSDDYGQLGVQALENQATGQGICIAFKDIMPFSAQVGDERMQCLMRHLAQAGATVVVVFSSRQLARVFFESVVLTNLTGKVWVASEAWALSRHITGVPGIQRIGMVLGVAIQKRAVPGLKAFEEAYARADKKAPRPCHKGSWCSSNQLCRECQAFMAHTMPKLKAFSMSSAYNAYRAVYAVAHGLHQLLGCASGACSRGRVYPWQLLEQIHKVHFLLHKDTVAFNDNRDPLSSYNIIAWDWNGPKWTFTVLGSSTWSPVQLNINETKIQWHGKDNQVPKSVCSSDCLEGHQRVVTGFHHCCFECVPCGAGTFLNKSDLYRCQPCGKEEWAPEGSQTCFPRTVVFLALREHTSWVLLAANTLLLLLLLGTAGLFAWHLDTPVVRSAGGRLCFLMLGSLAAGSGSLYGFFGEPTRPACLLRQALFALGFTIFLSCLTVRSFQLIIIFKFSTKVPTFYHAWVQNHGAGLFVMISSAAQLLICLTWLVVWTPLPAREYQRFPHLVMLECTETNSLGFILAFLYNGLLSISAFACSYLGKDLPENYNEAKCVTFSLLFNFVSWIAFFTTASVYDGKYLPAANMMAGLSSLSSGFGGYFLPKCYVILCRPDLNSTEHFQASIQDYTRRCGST
T1 sequence (Q7RTX0 21-852): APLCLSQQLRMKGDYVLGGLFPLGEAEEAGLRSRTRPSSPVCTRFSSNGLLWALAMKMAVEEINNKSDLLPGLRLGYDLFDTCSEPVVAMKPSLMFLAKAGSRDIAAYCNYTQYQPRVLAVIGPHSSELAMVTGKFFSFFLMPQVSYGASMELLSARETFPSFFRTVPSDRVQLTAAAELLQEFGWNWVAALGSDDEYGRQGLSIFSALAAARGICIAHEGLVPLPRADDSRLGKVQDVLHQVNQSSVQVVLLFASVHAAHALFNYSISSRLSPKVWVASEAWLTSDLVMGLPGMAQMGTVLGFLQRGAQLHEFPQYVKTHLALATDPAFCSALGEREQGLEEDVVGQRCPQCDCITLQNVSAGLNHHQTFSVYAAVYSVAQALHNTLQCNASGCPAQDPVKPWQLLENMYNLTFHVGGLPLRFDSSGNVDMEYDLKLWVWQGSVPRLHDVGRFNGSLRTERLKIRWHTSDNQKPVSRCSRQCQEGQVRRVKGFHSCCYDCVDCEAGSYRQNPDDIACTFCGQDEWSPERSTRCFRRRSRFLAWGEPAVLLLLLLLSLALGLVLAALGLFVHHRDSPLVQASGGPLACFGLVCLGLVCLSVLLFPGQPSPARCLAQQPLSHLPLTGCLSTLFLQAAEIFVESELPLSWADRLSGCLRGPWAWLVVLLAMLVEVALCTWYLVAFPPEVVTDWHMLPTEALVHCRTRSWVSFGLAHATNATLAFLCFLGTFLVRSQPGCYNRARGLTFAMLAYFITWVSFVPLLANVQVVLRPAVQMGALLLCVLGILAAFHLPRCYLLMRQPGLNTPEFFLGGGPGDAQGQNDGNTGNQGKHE
The experiment in a line: In vitro hT1R1/hT1R3 umami taste receptor activation assay (FLIPR, dose response). The class given is cell-based. Particulars: Table A, Umami Amides; read-out: Umami EC50.
As for `COc1cccc(C(=O)N[C@H]2CCCc3ccccc32)c1O` [Example A93, (S)-2-hydroxy-3-methoxy-N-(1,2,3,4-tetrahydronaphthalen-1-yl)benzamide], the EC50 turned out to be 700 nM.

As to `CCOc1ccc(C(=O)N[C@H]2CCc3ccccc32)cc1C` [Example A113, (S)-N-(2,3-dihydro-1H-inden-1-yl)-4-ethoxy-3-methylbenzamide], the EC50 came out at 850 nM.

`COC(=O)[C@@H](CC(C)C)NC(=O)c1cc2ccccc2[nH]1` [Example A34, (R)-methyl 2-(1H-indole-2-carboxamido)-4-methylpentanoate]: the EC50 came to 530 nM.

Turning to `CCCC(CCC)NC(=O)c1ccc(OC)cc1` [Example A79, N-(heptan-4-yl)-4-methoxybenzamide], the EC50 amounted to 460 nM.

Consider `O=C(N[C@H]1CCOc2ccccc21)c1cccc(Cl)c1O` [Example A115, (s)-3-chloro-N-(chroman-4-yl)-2-hydroxybenzamide], for which the EC50 was 5000 nM.

As to `CCCC(CCC)NC(=O)c1ccc(C)s1` [Example A38, 5-Methyl-thiophene-2-carboxylic acid (1-propyl-butyl)-amide], the EC50 came to 1220 nM.

In the case of `CCC(CC)NC(=O)c1cc2cc(OC)ccc2o1` [Example A13, 5-methoxy-N-(pentan-3-yl)benzofuran-2-carboxamide], the EC50 amounted to 1140 nM.

With `CCCC(CCC)NC(=O)c1ccc2ncsc2c1` [Example A22, Benzothiazole-6-carboxylic acid (1-propyl-butyl)-amide], the EC50 turned out to be 1580 nM.

For `CCCC(CCC)NC(=O)c1ccc2nc(CC)oc2c1` [Example A27, 2-ethyl-N-(heptan-4-yl)benzo[d]oxazole-6-carboxamide], the EC50 worked out at 1610 nM.

For the compound `CCCC(CCC)NC(=O)c1cccc(SC)c1` [Example A118, N-(heptan-4-yl)-3-(methylthio)benzamide], the EC50 was determined as 30 nM.

Take `CC(CCc1ccccc1)NC(=O)c1ccc2c(c1)OCO2` (centres unmarked) [Example A48]: the EC50 worked out at 1510 nM.

For the compound `COC(=O)[C@@H](CC(C)C)NC(=O)c1ccc2oc(C)nc2c1` [Example A28, (R)-4-Methyl-2-[(2-methyl-benzooxazole-5-carbonyl)-amino]-pentanoic acid methyl ester], the EC50 turned out to be 1690 nM.

For the compound `COC(=O)C(CCSC)NC(=O)c1cc2cc(OC)ccc2o1` (centres unmarked) [Example A14, methyl 2-(5-methoxybenzofuran-2-carboxamido)-4-(methylthio)butanoate], the EC50 stood at 1140 nM.

On to `COc1ccc2c(c1)CCC2NC(=O)c1ccc(O)c(C)c1` (centres unmarked) [Example A110, 4-hydroxy-N-(5-methoxy-2,3-dihydro-1H-inden-1-yl)-3-methylbenzamide], for which the EC50 is 300 nM.

On to `COc1ccc2c(c1)CCCC2NC(=O)c1cccc(OC)c1N` (centres unmarked) [Example A107, 2-amino-3-methoxy-N-(6-methoxy-1,2,3,4-tetrahydronaphthalen-1-yl)benzamide], for which the EC50 amounted to 70 nM.

Still in this assay, the particulars now being: Table B, Umami Oxalamides; read-out: Umami EC50.
`COc1ccc(CNC(=O)C(=O)NCCc2ccco2)c(OC)c1` [Example B1, N1-(2,4-dimethoxybenzyi)-N2-(2-(furan-2-yl)ethyl)oxalamide]: the EC50 is 180 nM.

The same assay, now with this note: Table C, Umami Ureas; read-out: Umami EC50.
With `CCCC(CCC)NC(=O)Nc1ccc(Cl)cc1Cl` [Example C22, 1-(2,4-dichlorophenyl)-3-(heptan-4-yl)urea], the EC50 is 180 nM.

Regarding `CCCC(CCC)NC(=O)Nc1ccc(C)cc1C` [Example C29, 1-(2,4-dimethylphenyl)-3-(heptan-4-yl)urea], the EC50 is 790 nM.

Take `C=Cc1ccccc1NC(=O)NC(CCC)CCC` [Example C30, 1-(heptan-4-yl)-3-(2-vinylphenyl)urea]: the EC50 stood at 790 nM.

`CCC(NC(=O)Nc1ccc(C)cc1Cl)c1ccccc1` (centres unmarked) [Example C24, 1-(2-chloro-4-methylphenyl)-3-(1-phenylpropyl)urea]: the EC50 was found to be 480 nM.

For `CCCC(CCC)NC(=O)Nc1ccccc1OC` [Example C26, 1-(heptan-4-yl)-3-(2-methoxyphenyl)urea], the EC50 was found to be 490 nM.

The same assay, now with this note: Table D, Umami Acrylamides; read-out: Umami EC50.
As for `CCCC(CCC)NC(=O)/C=C/c1ccc(OC)cc1` [Example D5, (E)-N-(heptan-4-yl)-3-(4-methoxyphenyl)acrylamide], the EC50 stood at 720 nM.

For the compound `COc1ccc(/C=C/C(=O)NC(C)CCc2ccccc2)cc1OC` (centres unmarked) [Example D16, (E)-3-(3,4-dimethoxyphenyl)-N-(4-phenylbutan-2-yl)acrylamide], the EC50 was 1560 nM.

For `CCC(CC)NC(=O)/C=C/c1ccc(OC)cc1` [Example D7, (E)-3-(4-methoxyphenyl)-N-(pentan-3-yl)acrylamide], the EC50 turned out to be 820 nM.

The assay is the same for the next values; noted with them: read-out: EC50 for activation of a hT1R1/hT1R3 umami receptor expressed in an HEK293 cell line.
As for `COC(=O)[C@@H](CC(C)C)NC(=O)c1ccc(OC)c(F)c1` [Example 60, (R)-methyl 2-(3-fluoro-4-methoxybenzamido)-4-methylpentanoate], the EC50 came out at 300 nM.

For `O=C(NCCc1ccccn1)C(=O)NCc1nc2ccccc2s1` [Example 151, N-(Benzo[d]thiazol-2-ylmethyl)-N′-(2-(pyridin-2-yl)ethyl)oxalamide], the EC50 stood at 4400 nM.

Consider `CCCC(NC(=O)c1ccc2c(c1)OCO2)c1ccc(OC)cc1` (centres unmarked) [Example 115, Benzo[1,3]dioxole-5-carboxylic acid [1-(4-methoxy-phenyl)-butyl]-amide], for which the EC50 came out at 4120 nM.

As to `CCCC(CCC)NC(=O)c1ccc(OCC)c(C)c1` [Example 56, 4-ethoxy-N-(heptan-4-yl)-3-methylbenzamide], the EC50 came out at 170 nM.

Turning to `CCCC(CC(C)C)NC(=O)c1ccc(C)c(C)c1` (centres unmarked) [Example 69, 3,4-dimethyl-N-(2-methylheptan-4-yl)benzamide], the EC50 was determined as 130 nM.

In the case of `CCc1ccc(CCNC(=O)c2ccc3c(c2)OCO3)cc1` [Example 112, Benzo[1,3]dioxole-5-carboxylic acid [2-(4-ethyl-phenyl)-ethyl]-amide], the EC50 stood at 3860 nM.

As for `CCCC(NC(=O)c1ccc(OC)c(C)c1)c1ccccn1` (centres unmarked) [Example 114, 4-Methoxy-3-methyl-N-(1-pyridin-2-yl-butyl)-benzamide], the EC50 amounted to 1540 nM.

Consider `CCCC(CCC)NC(=O)c1ccc(N(CC)CC)cc1` [Example 92, 4-(diethylamino)-N-(heptan-4-yl)benzamide], for which the EC50 was found to be 7600 nM.

On to `CCCC(NC(=O)c1ccc(OC)c(C)c1)c1ccc(OC)cc1` (centres unmarked) [Example 54, 4-methoxy-N-(1-(4-methoxyphenyl)butyl)-3-methylbenzamide], for which the EC50 turned out to be 3140 nM.

Regarding `Cc1occc1CNC(=O)C(=O)NCCc1ccccn1` [Example 153, N-((2-Methylfuran-3-yl)methyl)-N′-(2-(pyridin-2-yl)ethyl)oxalamide], the EC50 came to 1820 nM.

On to `O=C(NC1CCCc2ccccc21)c1ccc2c(c1)OCO2` (centres unmarked) [Example 7, N-(1,2,3,4-tetrahydronaphthalen-1-yl)benzo[d][1,3]dioxole-5-carboxamide], for which the EC50 is 710 nM.

On to `CC(C)/C=C/C(=O)NC1CCCc2ccccc21` (centres unmarked) [Example 84, 4-Methyl-pent-2-enoic acid (1,2,3,4-tetrahydro-naphthalen-1-yl)-amide], for which the EC50 is 1500 nM.

Take `COc1ccc(CNC(=O)c2ccnn2C)c(OC)c1` [Example 110, 2-Methyl-2H-pyrazole-3-carboxylic acid 2,4-dimethoxy-benzylamide]: the EC50 was determined as 6000 nM.

Turning to `CCCC(CCC)NC(=O)c1ccc(OC)c(OC)c1` [Example 65, 3,4-Dimethoxy-N-(1-propyl-butyl)-benzamide], the EC50 was determined as 360 nM.
